Data set [1] concerns BV-2 microglial cells. Nature of the data set: Nitrite assay: LPS-stimulated NO production in BV-2 microglial cells. Particulars: for NO production decreased compared to the control group: 100 μM compound. It counts as cell-based. Here is the method: (§1) BV-2 microglial cells were cultured in Dulbecco's modified Eagle medium supplemented with 5% Fetal bovine serum and 1% 100 units/mL of penicillin/streptomycin at 37° C. in a humidified 5% CO2 incubator.
For Nitrite assay, the BV-2 microglial cells seeded at a density of 1.25×10^5 cell/each well in 24-well plate were pretreated with various concentrations of compounds 1-4 for 1 h, followed by LPS (200 ng/mL) for 24 h. A range of sodium nitrite dilutions was used to obtain a standard curve with the amount of nitrite in each sample. Absorbance was determined at 540 nm using a microplate reader (Tecan Trading AG).

Data set [2] has as its system BV-2 microglial cells. Nature of the data set: MTT assay: cell viability of LPS-stimulated BV-2 microglial cells. Type of data set: cell-based. Here is the method: as §1
The BV-2 microglial cells seeded at a density of 1.25×10^5 cell/each well in 24-well plate were pretreated with various concentration of compounds (12.5, 25, 50, and 100 μM for compounds 1-3 and 1, 2, 4, and 8 μM for compound 4) for 1 h, followed by LPS (200 ng/mL) for 24 h. 20 μL of MTT (2 mg/mL) solution was added to each well. After 1 h, the supernatant was sucked out and crystals of formazan were dissolved in DMSO. Optical density was measured at 550 nm using a microplate reader (Tecan Trading AG) and values were determined in comparison to control cells.
On the technique in general: Tetrazolium dyes change colour on reduction, which living cells bring about.

Where [3] appears, read: pretreated 1 h, then LPS (200 ng/mL) 24 h.

For the compound `C/C=C/C=C/CC[C@]12OCC[C@@H]3OC[C@](O)(CO1)[C@@H]32` [Compound 1, (2aS,2a^1R,4aS,7aS)-7a-((3E,5E)-hepta-3,5-diene-1-yl)tetrahydro-2H,6H,1,4,7-trioxacyclopenta[cd]indene-2a(3H)-ol], in the data set with BV-2 microglial cells [1] (setting [3]), the “NO production decreased compared to the control group” value (shortened to “NO production decreased”) is recorded as “about 22%”. Consider `C/C=C/C=C/C=C/[C@]12OCC[C@@H]3OC[C@](O)(CO1)[C@@H]32` [Compound 2, (2aS,2a^1R,4aS,7aS)-7a-((1E,3E,5E)-hepta-1,3,5-triene-1-yl)tetrahydro-2H, 6H,1,4,7-trioxacyclopenta[cd]indene-2a(3H)-ol], for which the “NO production decreased” value in the data set with BV-2 microglial cells [1] (setting [3]) was “about 25%”.

As to `C/C=C/C=C/CC[C@]12OCC[C@@H]3OC[C@](OC(=O)c4ccccc4N)(CO1)[C@@H]32` [Compound 3, (2aS,2a^1R,4aS,7aS)-7a-((3E,5E)-hepta-3,5-diene-1-yl)tetrahydro-2H,6H,1,4,7-trioxacyclopenta[cd]indene-2a(3H)-yl-2-aminobenzoate], the “NO production decreased” value with BV-2 microglial cells [1] (setting [3]) is listed as “about 50%”. Take `C/C=C/C=C/C=C/[C@]12OCC[C@@H]3OC[C@](OC(=O)c4ccccc4N)(CO1)[C@@H]32` [Compound 4, (2aS,2a^1R,4aS,7aS)-7a-((1E, 3E,5E)-hepta-1,3,5-triene-1-yl)tetrahydro-2H, 6H,1,4,7-trioxacyclopenta[cd]indene-2a(3H)-yl-2-aminobenzoate]: the cellular viability result in the data set on BV-2 microglial cells [2] (1, 2, 4 and 8 μM, pretreated 1 h, then LPS (200 ng/mL) 24 h, MTT, compared to control cells) is listed as “less than 80%”. Moreover, the cytotoxicity entry in the data set on BV-2 microglial cells [2] (low concentration of less than 10 μM, BV-2 microglial cells (FIG. 12)) was “cytotoxicity”. Moreover, in the data set with BV-2 microglial cells [1] (compound at low concentration of 1 to 8 μM, pretreated 1 h, then LPS (200 ng/mL) 24 h), the “NO production reduced compared to the control group” value was “about 93%”. In addition, the “NO production inhibiting effect” value in the data set on BV-2 microglial cells [1] (low concentration of less than 10 μM) was “strong NO production inhibiting effect”.

Source of the values: patent US11878984B2, “Compounds derived from Streptomyces and uses thereof” (KOREA INSTITUTE OF OCEAN SCIENCE & TECHNOLOGY, priority 2018, dated 2024).
